# From ChEMBL document CHEMBL1201862, “PubChem BioAssay data set” (2004)
# The source made the active and inactive calls.
# How the values were obtained:
# Bcl-2-like protein 1 = Bcl-2-like protein 1 (Homo sapiens, UniProt Q07817); assay: BCL-XL inhibitors, dose response, selectivity assay for MCL1 inhibitor project, biochemical, fluorescence polarization, 1536-well (AID 2218)
# Caspase-7 = Caspase-7 (Homo sapiens, UniProt P55210); assay: human caspase-7 inhibitors, dose response, selectivity assay for caspase-6 inhibitor project, biochemical, DEVD-R110 fluorescence, cherry-pick (AID 743295)
# Sequence of Caspase-7 (P55210 24-198 limits assumed): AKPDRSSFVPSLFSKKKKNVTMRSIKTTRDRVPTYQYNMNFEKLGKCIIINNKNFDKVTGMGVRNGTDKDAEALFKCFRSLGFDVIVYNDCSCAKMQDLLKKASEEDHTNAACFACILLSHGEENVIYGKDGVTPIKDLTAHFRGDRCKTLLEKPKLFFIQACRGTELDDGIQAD
# Sequence of Caspase-7 (P55210 207-303 limits assumed): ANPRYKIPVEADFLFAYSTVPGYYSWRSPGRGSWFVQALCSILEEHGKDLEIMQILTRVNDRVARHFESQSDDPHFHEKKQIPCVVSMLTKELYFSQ
# [1] = target: Induced myeloid leukemia cell differentiation protein Mcl-1 (Homo sapiens, UniProt Q07820); assay: MCL1-BIM BH3 interaction inhibitors, dose response, biochemical, fluorescence polarization, BIM-BH3 peptide, 1536-well (AID 2217)
# Sequence of Induced myeloid leukemia cell differentiation protein Mcl-1 (Q07820 whole entry): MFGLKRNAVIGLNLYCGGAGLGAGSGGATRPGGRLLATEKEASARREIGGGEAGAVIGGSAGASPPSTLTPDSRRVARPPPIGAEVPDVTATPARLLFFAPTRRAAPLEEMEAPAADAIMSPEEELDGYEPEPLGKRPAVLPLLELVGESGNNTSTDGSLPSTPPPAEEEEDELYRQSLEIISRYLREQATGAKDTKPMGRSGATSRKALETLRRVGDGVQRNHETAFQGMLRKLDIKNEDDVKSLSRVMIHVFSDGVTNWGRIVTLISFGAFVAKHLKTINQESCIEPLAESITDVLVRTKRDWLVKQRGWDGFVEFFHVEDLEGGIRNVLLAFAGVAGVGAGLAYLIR
# [2] = target: T1, DNA dC->dU-editing enzyme APOBEC-3A (Homo sapiens, UniProt P31941); assay: Dose Response confirmation of small molecule APOBEC3A DNA Deaminase Inhibitors via a fluorescence-based single-stranded DNA deaminase assay. [Related pubchem assays (depositor defined):AID493011, AID493024]; assay type: functional
# T1 sequence (P31941 whole entry): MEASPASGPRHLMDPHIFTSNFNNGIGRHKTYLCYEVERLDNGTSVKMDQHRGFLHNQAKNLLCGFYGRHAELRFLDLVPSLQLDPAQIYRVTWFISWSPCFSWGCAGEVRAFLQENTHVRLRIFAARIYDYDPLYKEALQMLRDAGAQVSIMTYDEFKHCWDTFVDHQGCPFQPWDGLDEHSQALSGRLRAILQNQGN
# Caspase-6 = Caspase-6 (Homo sapiens, UniProt P55212); assay: human caspase-6 inhibitors, dose response, biochemical, VEID-R110 fluorescence, cherry-pick (AID 720632)
# Sequence of Caspase-6 (P55212 24-179 limits assumed): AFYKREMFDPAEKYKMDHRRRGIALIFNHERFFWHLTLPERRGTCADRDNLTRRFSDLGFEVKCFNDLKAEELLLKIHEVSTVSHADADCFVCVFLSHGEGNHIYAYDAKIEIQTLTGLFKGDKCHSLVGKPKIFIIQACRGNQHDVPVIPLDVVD
# Sequence of Caspase-6 (P55212 194-293 limits assumed): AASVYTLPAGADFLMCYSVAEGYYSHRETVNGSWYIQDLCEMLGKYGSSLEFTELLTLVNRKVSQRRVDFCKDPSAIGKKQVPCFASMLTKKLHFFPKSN
# [3] = target: T2, DNA dC->dU-editing enzyme APOBEC-3G (Homo sapiens, UniProt Q9HC16); assay type: functional
# T2 sequence (Q9HC16 whole entry): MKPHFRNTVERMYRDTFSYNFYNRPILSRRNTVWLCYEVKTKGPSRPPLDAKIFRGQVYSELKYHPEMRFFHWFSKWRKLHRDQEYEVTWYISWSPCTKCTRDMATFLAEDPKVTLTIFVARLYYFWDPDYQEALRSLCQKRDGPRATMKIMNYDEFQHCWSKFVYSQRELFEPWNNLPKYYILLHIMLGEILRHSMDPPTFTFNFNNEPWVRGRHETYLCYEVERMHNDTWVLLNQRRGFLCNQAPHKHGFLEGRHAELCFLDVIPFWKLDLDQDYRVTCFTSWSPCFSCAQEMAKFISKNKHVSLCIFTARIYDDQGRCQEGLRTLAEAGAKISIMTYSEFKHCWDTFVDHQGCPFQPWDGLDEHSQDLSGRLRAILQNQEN
# Coagulation factor XII [4] = target: T3, Coagulation factor XII (Homo sapiens, UniProt P00748); assay: Factor XIIa Dose Response Confirmation from Single Well HTS. [Related pubchem assays (depositor defined):AID701]; assay type: functional
# T3 sequence (P00748 whole entry): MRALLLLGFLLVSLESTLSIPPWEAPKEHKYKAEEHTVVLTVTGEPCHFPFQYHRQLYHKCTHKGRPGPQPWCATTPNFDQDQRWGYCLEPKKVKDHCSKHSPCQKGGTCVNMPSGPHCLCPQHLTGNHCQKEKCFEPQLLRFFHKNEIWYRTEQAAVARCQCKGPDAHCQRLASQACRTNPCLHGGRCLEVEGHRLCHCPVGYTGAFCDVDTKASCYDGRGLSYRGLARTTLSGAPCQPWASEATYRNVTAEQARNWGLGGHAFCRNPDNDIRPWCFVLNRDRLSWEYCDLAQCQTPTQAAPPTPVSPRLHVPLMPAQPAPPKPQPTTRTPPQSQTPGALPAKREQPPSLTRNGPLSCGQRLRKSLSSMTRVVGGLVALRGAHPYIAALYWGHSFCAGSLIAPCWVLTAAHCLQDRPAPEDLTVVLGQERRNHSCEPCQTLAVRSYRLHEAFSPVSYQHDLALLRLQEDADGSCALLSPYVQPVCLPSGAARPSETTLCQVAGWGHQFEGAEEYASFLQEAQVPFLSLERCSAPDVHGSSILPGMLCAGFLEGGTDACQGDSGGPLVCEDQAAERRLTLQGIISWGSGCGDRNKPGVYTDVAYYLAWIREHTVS
# [5] = inhibitors of firefly luciferase expression or activity, dose response, H4 neuroglioma cells, luminescence (AID 1990); assay type: functional, cell-based
# [6] = Luminescence Cell-Based Dose Response HTS to Identify Inhibitors of 5'UTR Stem-Loop Driven Prion Protein mRNA Translation in H4 Neuroglioblastoma Cells. [Related pubchem assays: 1827 (Project Summary), 1813 (Primary HTS)]; assay type: functional
# [7] = insulin promoter down-regulators in MIN6 cells, imaging, high-content screening, mouse beta cells (AID 1628); assay type: functional
# BJ [8] = assay: cells; assay type: functional, cell-based; settings: Homo sapiens
# BJ [9] = assay: cytotoxicity toward BJ-TERT-LT-ST fibroblasts, dose response, cell-based, RAS-independent, luminescence (AID 1935); assay type: functional; settings: Homo sapiens;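 further: BJ fibroblasts immortalized with TERT plus LT and ST oncogenes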
# BJ [10] = assay: cytotoxicity toward BJ-TERT fibroblasts, dose response, cell-based, RAS-independent, luminescence (AID 1933); assay type: functional; settings: Homo sapiens
# [11] = cytotoxicity in MIN6 insulinoma cells, dose response, cytotoxicity control, cell-based, mouse insulinoma (AID 2122); assay type: functional;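 further: confirmatory high-throughput counterscreen run to flag cytotoxic compounds; mouse MIN-6 beta cells carrying an insulin promoter eGFP reporter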
# INS1 = assay: beta cell apoptosis inhibitors, cytokine rescue, dose response, luminescence, retest (AID 449756); assay type: functional, cell-based; settings: Rattus norvegicus;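 further: cell death triggered by IL-1 beta plus TNF-alpha plus IFN-gamma mixture; protective hits raise ATP signal compared with cytokine alone wells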
# [12] = target: T4, Type-1 angiotensin II receptor (Homo sapiens, UniProt P30556); assay: AT1 receptor agonists, dose response, selectivity assay for APJ receptor agonist project, cell-based, uHTS hits (AID 488865); assay type: functional;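 further: beta-arrestin recruitment to AT1 measured by enzyme fragment complementation luminescence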
# T4 sequence (P30556 whole entry): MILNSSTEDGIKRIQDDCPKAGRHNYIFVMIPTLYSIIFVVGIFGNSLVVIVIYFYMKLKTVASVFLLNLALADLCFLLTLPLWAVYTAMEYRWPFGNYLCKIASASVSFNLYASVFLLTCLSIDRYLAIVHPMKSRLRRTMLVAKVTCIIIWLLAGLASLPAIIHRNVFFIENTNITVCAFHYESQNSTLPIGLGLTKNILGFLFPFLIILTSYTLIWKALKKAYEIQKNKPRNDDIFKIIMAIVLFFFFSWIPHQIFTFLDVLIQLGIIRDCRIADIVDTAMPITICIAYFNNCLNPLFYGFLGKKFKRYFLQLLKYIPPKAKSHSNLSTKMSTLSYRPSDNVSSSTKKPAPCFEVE
# BJ [13] = assay: cytotoxicity toward Ras-transformed BJeLR fibroblasts, dose response, cell-based, alamar blue fluorescence, cherrypicked samples (AID 2631); assay type: functional; settings: Homo sapiens;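 further: confirmatory dose-response assay in RAS-dependent BJ fibroblasts engineered with TERT, LT and ST, with cytotoxicity read by fluorescence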
# X-box-binding protein 1 = X-box-binding protein 1 (Homo sapiens, UniProt P17861); assay type: functional, Cricetulus griseus;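 further: confirmatory dose-response counter-screen serving a CHOP assay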
# Sequence of X-box-binding protein 1 (P17861 whole entry): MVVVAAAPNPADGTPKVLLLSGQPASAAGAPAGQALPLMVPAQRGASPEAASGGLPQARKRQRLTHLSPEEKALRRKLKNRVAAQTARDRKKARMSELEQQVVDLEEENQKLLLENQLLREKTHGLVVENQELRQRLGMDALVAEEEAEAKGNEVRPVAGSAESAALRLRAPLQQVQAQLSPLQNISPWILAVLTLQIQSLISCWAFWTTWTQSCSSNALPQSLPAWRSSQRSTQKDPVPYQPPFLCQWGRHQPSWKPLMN
# [14] = inhibitors of SNCA 5'UTR-driven reporter translation, confirmation, H4 neuroglioma cells, luminescence (AID 1988); assay type: functional, cell-based
# [15] = cytotoxicity toward DRD oncogenic fibroblasts, dose response, cell-based, non-viral oncogenic, luminescence (AID 1934); assay type: functional; settings: Homo sapiens
# [16] = target: T5, Heat shock factor protein 1 (Mus musculus, UniProt P38532); assay: inhibition of MG132-induced HSE-luciferase signal, confirmation, cell-based, NIH3T3, luminescence, dose retest (AID 2382); assay type: functional;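 further: NIH3T3 fibroblasts with HSF1-driven luciferase reporter stressed by proteasome inhibitor MG132; luminescence from HSF1-driven luciferase expression after 8 hours of MG132 stress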
# T5 sequence (P38532 whole entry): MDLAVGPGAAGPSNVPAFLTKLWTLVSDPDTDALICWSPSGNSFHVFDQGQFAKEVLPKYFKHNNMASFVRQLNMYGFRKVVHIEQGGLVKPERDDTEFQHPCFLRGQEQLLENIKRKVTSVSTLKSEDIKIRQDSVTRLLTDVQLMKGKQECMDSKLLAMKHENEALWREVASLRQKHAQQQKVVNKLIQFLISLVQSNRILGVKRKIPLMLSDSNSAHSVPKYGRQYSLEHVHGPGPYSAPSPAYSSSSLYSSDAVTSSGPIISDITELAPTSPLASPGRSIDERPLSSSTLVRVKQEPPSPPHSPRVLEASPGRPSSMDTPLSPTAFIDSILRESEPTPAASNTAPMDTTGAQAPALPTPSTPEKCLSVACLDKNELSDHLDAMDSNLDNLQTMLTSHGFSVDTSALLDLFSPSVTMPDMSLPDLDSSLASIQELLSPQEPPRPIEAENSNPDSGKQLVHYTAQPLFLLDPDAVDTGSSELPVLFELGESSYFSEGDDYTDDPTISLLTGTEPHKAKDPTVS
# Coagulation factor XII [17] = target: T3, Coagulation factor XII; assay: FXIIa inhibitor potency, concentration-response, biochemical (AID 716); assay type: functional
# [18] = target: T6, Dual specificity protein phosphatase 3 (Homo sapiens, UniProt P51452); assay: SAR VHR1 Fluorescent Assay for In Vitro dose response studies. [Related pubchem assays (depositor defined):AID1654, AID1661, AID1878, AID1992, AID2004, AID2070, AID2085]; assay type: functional
# T6 sequence (P51452 whole entry): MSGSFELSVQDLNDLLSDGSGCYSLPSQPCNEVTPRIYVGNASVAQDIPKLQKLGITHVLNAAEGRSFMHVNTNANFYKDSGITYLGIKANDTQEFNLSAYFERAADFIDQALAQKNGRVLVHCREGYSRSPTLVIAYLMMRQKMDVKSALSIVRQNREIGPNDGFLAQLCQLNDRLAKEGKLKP
# [19] = target: T7, Dual specificity protein phosphatase 6 (Rattus norvegicus, UniProt Q64346); assay type: functional;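 further: confirmatory in vitro dose-response testing of MKP-3 inhibition; recombinant His-tagged MKP-3 made in E. coli BL21 with OMFP substrate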
# T7 sequence (Q64346 whole entry): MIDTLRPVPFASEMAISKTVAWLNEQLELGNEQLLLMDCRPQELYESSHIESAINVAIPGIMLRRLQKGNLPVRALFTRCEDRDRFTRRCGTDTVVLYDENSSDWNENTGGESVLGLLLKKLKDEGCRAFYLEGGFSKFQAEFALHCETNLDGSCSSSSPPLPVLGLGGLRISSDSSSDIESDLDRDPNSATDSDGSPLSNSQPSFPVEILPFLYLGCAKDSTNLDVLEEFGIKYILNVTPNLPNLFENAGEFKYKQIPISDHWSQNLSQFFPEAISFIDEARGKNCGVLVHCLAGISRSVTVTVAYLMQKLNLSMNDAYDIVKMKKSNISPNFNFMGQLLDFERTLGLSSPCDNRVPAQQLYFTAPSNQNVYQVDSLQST
# [20] = target: T6, Dual specificity protein phosphatase 3; assay: SAR VHR1 absorbance Assay for In Vitro dose response studies. [Related pubchem assays (depositor defined):AID1654, AID1661, AID1878, AID1992, AID2004]
# [21] = target: T8, Tyrosine-protein phosphatase non-receptor type 7 (Homo sapiens, UniProt P35236); assay: redox-dependent HePTP inhibition, mechanism study, biochemical, fluorescence (AID 2068); assay type: functional
# T8 sequence (P35236 whole entry): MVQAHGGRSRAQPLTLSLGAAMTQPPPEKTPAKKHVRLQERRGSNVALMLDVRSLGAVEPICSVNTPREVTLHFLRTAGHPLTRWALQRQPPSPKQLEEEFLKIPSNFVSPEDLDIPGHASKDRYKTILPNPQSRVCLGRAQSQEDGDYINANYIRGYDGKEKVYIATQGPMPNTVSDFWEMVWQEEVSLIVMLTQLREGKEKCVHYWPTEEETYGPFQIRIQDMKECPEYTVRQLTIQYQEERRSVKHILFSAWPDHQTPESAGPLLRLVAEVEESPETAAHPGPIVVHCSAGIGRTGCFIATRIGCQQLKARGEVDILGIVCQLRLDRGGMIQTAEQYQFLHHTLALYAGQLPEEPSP
# T-cell = assay: inhibitors of CD8+ T cell–vesicle binding, dose response, mouse 2C CD8+ T cells, flow cytometry (AID 485284); assay type: functional
# [22] = target: G-protein coupled receptor 55 (Homo sapiens, UniProt Q9Y2T6); assay: SAR Analysis of Selective Antagonists of GPR55 using an Image-Based Assay - Set 3. [Related pubchem assays (depositor defined):AID2058, AID2079]; assay type: functional
# Sequence of G-protein coupled receptor 55 (Q9Y2T6 whole entry): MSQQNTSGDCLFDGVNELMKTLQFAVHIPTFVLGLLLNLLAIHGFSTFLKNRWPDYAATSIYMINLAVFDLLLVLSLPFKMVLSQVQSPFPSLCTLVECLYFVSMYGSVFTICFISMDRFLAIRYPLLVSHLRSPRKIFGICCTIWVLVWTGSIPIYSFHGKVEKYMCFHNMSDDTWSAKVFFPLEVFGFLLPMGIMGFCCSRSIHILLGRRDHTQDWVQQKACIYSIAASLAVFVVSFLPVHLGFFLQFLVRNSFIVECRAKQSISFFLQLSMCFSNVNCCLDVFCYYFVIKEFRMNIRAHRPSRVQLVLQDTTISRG
# [23] = target: G-protein coupled receptor 35 (Homo sapiens, UniProt Q9HC97); assay: SAR analysis of Antagonists of the GPR35 Receptor using an Image-Based Assay - Set 5. [Related pubchem assays (depositor defined):AID2058, AID2079]; assay type: functional
# Sequence of G-protein coupled receptor 35 (Q9HC97 whole entry): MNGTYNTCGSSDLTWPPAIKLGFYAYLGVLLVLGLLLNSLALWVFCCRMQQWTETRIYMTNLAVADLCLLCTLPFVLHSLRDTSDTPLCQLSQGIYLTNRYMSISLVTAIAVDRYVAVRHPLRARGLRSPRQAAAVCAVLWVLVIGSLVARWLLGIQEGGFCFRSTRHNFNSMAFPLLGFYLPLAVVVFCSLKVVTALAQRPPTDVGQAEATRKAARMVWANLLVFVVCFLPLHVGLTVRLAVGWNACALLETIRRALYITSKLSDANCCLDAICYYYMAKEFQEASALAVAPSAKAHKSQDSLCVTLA
# [24] = C. albicans growth with fluconazole, confirmation, fluorescence, retest (AID 2467); assay type: functional, cell-based
# cells [25] = assay type: functional, cell-based
# [26] = Luminescence Cell-Based Dose Retest to Confirm Inhibitors of Cancer Stem Cells. [Related pubchem assays (depositor defined):AID2717, AID2721]; assay type: functional; settings: Homo sapiens
# [27] = NIH-3T3 fibroblast cytotoxicity, dose response, cytotoxicity control, cell-based, fluorescence, Alamar Blue, secondary assay (AID 2327); assay type: functional;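 further: NIH-3T3 mouse fibroblasts cultured with fluconazole at 8 µg/mL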
# [28] = target: E3 ubiquitin-protein ligase Mdm2/Protein Mdm4 (Homo sapiens, UniProt O15151+Q00987); assay: Mdm2-MdmX interaction inhibitors, dose response, luminescence detection (AID 504593); assay type: functional
# Sequence of E3 ubiquitin-protein ligase Mdm2/Protein Mdm4 (Q00987 whole entry): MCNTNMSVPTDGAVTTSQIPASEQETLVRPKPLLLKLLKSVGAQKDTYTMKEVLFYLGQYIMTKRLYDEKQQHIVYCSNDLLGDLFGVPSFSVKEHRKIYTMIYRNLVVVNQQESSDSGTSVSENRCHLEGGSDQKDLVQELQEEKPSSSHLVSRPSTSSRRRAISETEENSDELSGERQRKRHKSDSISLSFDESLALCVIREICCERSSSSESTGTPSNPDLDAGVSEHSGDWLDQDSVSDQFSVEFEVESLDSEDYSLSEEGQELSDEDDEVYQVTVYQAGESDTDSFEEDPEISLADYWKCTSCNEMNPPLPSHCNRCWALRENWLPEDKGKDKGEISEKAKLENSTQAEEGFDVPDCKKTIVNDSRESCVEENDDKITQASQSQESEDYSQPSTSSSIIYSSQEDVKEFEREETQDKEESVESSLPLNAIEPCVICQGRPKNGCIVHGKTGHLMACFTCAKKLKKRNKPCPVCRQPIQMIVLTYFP
# Sequence of E3 ubiquitin-protein ligase Mdm2/Protein Mdm4 (O15151 whole entry): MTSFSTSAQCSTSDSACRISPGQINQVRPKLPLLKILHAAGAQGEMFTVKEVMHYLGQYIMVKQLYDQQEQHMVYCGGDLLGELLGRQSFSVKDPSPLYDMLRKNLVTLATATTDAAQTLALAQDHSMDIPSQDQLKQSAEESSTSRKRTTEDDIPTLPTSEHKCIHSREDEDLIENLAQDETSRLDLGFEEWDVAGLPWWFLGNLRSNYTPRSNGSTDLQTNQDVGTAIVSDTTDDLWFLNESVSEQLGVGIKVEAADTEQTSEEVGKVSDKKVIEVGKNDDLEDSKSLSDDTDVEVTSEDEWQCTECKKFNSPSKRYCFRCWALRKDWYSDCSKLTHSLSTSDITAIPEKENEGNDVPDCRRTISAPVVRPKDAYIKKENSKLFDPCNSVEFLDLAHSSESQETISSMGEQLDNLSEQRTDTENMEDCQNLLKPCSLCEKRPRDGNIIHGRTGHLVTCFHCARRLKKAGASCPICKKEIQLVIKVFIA
# cells [29] = assay type: functional, cell-based; remark: listed apart in the source
# [30] = target: T2, DNA dC->dU-editing enzyme APOBEC-3G; assay: Dose Response confirmation of small molecule APOBEC3G DNA Deaminase Inhibitors via a fluorescence-based single-stranded DNA deaminase assay. [Related pubchem assays (depositor defined):AID493012, AID493028]; assay type: functional
# Troponin, cardiac muscle = Troponin, cardiac muscle (Homo sapiens, UniProt P19429+P45379+P63316); assay: Fluorescence-based biochemical high throughput dose response assay for activators of the calcium sensitivity of cardiac Regulated Thin Filaments (RTF). [Related pubchem assays (depositor defined):AID493008, AID493018, AID504382, AID504383]; assay type: protein-complex assay
# Large T antigen = Large T antigen (Simian virus 40, UniProt P03070); assay type: functional, Betapolyomavirus macacae;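 further: Confirmatory-stage PubChem screen for compounds that inhibit SV40 T antigen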
# Sequence of Large T antigen (P03070 whole entry): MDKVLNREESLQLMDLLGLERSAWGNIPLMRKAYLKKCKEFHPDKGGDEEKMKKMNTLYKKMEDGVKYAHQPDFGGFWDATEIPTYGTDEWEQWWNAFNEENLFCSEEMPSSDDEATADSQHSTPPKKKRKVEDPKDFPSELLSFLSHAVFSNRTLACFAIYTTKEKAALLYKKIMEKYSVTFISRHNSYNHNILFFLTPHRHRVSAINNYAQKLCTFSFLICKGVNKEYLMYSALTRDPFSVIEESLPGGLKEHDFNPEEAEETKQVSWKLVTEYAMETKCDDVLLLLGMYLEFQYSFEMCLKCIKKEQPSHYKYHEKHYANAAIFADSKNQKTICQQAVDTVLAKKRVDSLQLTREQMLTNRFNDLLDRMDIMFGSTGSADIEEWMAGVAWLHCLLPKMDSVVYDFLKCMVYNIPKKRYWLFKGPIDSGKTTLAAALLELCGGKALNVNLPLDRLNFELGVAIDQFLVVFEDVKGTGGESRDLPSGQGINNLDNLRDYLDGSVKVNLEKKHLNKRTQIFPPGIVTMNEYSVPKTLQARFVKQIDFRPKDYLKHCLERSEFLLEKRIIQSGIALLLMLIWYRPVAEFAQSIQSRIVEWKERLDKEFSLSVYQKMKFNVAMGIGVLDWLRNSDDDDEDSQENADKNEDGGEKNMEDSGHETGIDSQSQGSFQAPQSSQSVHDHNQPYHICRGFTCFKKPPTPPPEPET
# [31] = target: T1, DNA dC->dU-editing enzyme APOBEC-3A; assay: APOBEC3A DNA deaminase inhibitors, dose response, biochemical (AID 504722); assay type: functional
# Sequence of Bcl-2-like protein 1 (Q07817 whole entry): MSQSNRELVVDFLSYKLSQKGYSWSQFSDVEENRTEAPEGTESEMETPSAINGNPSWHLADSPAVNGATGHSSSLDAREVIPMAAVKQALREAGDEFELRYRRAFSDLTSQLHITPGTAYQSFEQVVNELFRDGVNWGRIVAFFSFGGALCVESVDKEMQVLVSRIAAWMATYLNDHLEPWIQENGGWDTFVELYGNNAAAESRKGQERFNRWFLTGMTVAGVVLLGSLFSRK
compound,measurement,setting,value
O=C(O)/C(=C\c1ccc(Cl)c([N+](=O)[O-])c1)c1ccc(S(=O)(=O)N2CCCC2)s1,IC50,Bcl-2-like protein 1,> 109 µM (not active)
same,AC50,Caspase-7,> 70 µM (inactive)
same,IC50,[1],15 µM (not active)
same,IC50,[2],19.4 µM (active)
same,AC50,Caspase-6,3.82 µM (active)
same,IC50,[3],47.8 µM (active)
CC(C)NC(=O)c1ccccc1-c1ccccc1,IC50,Coagulation factor XII [4],> 50 µM (inactive)
Cn1ncc2c(ON=C(N)c3ccc(C(C)(C)C)cc3)ncnc21,EC50,[5],> 120 µM (not active)
same,EC50,[6],10.1 µM (active)
same,IC50,[7],2.12 µM (active)
same,EC50,BJ [8],5.24 µM (inconclusive)
same,EC50,BJ [9],4.91 µM (inconclusive)
same,EC50,BJ [10],1.32 µM (active)
same,IC50,[11],1.22 µM (active)
same,AC50,INS1,5.03 µM (active)
same,EC50,[12],> 100 µM (inactive)
same,EC50,BJ [13],2.92 µM (active)
same,Absolute IC50 (XBP1),X-box-binding protein 1,< 10 µM
same,EC50,[14],7.91 µM (active)
same,EC50,[15],2.83 µM (active)
same,EC50,[16],7.4 µM (active)
O=C(Cc1ccc(-n2cccc2)cc1)N1CCc2ccccc21,IC50,Coagulation factor XII [17],> 50 µM (inactive)
S=C(c1cn(CCOc2ccccc2)c2ccccc12)N1CCOCC1,IC50,[18],> 99 µM (inactive)
same,IC50,[19],> 99 µM (inactive)
same,IC50,[20],> 100 µM (inactive)
same,IC50,[21],2.35 µM (active)
COc1ccc(/C=C2\SC(=S)N(CCC(=O)N3CCOCC3)C2=O)cc1,EC50,T-cell,16.2 µM (active)
COc1ccc(-c2n[nH]cc2/C=N/NC(=S)NC(C)(C)C)cc1,IC50,[22],16.4 µM (inactive)
same,IC50,[23],> 32 µM (inactive)
O=C(CN1CCCc2ccccc21)N/N=C/c1c(O)ccc2ccccc12,EC50,[24],1.91 µM (active)
same,EC50,cells [25],> 350 µM (not active)
same,AC50,[26],1.83 µM (active)
same,EC50,[27],> 160 µM (inconclusive)
same,IC50,[28],2.68 µM (active)
same,EC50,cells [29],60.1 µM (active)
Cc1cccc(/C=N/n2c(S)nnc2-c2ccncc2)c1,IC50,[30],2.62 µM (active)
same,EC50,"Troponin, cardiac muscle",> 71.5 µM (inactive)
same,IC50,Large T antigen,43.7 µM (active)
same,IC50,[31],> 100 µM (inactive)
